A short description of data set [1]: Stability in 50% diluted pooled rat serum assessed compound degradation at 1.5 mg measured within 2 hrs by HPLC analysis. It is filed as ADME, cell-free.
The test system of data set [2] is N2a. Kind of data set: Neuroprotective activity against oxygen-glucose deprivation/reperfusion injury in mouse Neuro2a cells assessed as cell viability at 50 uM added 4 hrs prior to oxygen-glucose deprivation induction by MTT assay (Rvb 61 +/- 5%). It is filed as functional. As to conditions: read-out: Activity.
Data set [3] in a line: Stability in 50% diluted pooled rat serum assessed parent compound remaining at 1.5 mg measured after 24 hrs by HPLC analysis. As to conditions: read-out: Stability. It is filed as ADME, cell-free.
In data set [4] the test system is N2a. Description: Neuroprotective activity against oxygen-glucose deprivation/reperfusion injury in mouse Neuro2a cells assessed as cell viability at 6.25 uM added 4 hrs prior to oxygen-glucose deprivation induction by MTT assay (Rvb 61 +/- 5%). The data set is classed as functional. As to conditions: read-out: Activity. (In general: Tetrazolium assays rely on reduction of a dye to a coloured formazan, in cell work by metabolically active cells.)

Regarding `CC(C)C[C@H](NC(=O)[C@@H](NC(=O)CNC(=O)[C@H](CO)NC(=O)[C@H](CC(C)C)NC(=O)[C@@H](N)CC(C)C)C(C)C)C(=O)NCC(=O)O`, the Stability entry in data set [1] was “Stable”.

For the molecule `CC(C)C[C@H](N)C(=O)N[C@H](CC(C)C)C(=O)N[C@@H](CO)C(=O)NCC(=O)N[C@H](C(=O)N[C@H](CC(C)C)C(=O)NCC(=O)NCC(=O)O)C(C)C`, the viability at 50 µM with N2a [2] was 82%. For the same molecule, in data set [3], the remaining at 24 h is 65%. For the molecule `CC(C)C[C@H](N)C(=O)N[C@H](CC(C)C)C(=O)N[C@@H](CO)C(=O)NCC(=O)N[C@H](C(=O)O)C(C)C`, the viability at 50 µM with N2a [2] came out at 86%. Also, the remaining at 24 h in data set [3] was 65%. Turning to `CC(C)C[C@H](NC(=O)[C@@H](NC(=O)CNC(=O)[C@H](CO)NC(=O)[C@H](CC(C)C)NC(=O)[C@@H](N)CC(C)C)C(C)C)C(=O)NCC(=O)NCC(=O)O`, the Stability entry in data set [1] is “Stable”. With `CC(C)C[C@H](N)C(=O)N[C@H](CC(C)C)C(=O)N[C@@H](CO)C(=O)NCC(=O)N[C@H](C(=O)N[C@H](CC(C)C)C(=O)NCC(=O)O)C(C)C`, the viability at 6.25 µM with N2a [4] was found to be 79%. Besides, in data set [3], the remaining at 24 h was 65%. Take `CC(C)C[C@H](NC(=O)[C@@H](N)CC(C)C)C(=O)N[C@@H](CO)C(=O)NCC(=O)N[C@H](C(=O)O)C(C)C`: the Stability result in data set [1] is recorded as “Stable”. Regarding `CC1=NN(c2ccccc2)C(=O)C1` [EDARAVONE], the viability at 50 µM in the data set with N2a [2] stood at 90%.

(Values after ChEMBL document CHEMBL4387789, “Linear Peptides Containing d-Leucine with Neuroprotective Activities from the Leech Whitmania pigra Whitman” (J Nat Prod, 2019).)
